Assay results reported in patent US7351294B2, “Surface cleaner” (Reckitt Benckiser (UK) Limited, priority 1999, dated 2008).

Tests used:
[1] = cited from earlier work
[2] = Activity test: decolourisation of target dye gentian violet by sensitised TiO2 sol on an overhead projector, followed by UV/Visible spectrum
Protocol: A mixture of TiO2 sol (1 ml, 1 g/L) and tris(2,2′-dipyridyl4,4′-dicarboxylate)ruthenium(II)(dichloride) (4 ml, c=3.4×10^−5M) was stirred for about 1 minute using a rotamixer. The pH was recorded then the target dye gentian violet (GV dissolved in 20% ethanol solution, 0.05 ml or 0.08 ml, 0.03 wt/v %) was added and the mixture was stirred again. The initial colour of the sensitised TiO2 sol was yellow. Addition of gentian violet produced a purple colour at pH 3 and higher. A UV/Visible spectrum was taken at this stage. The vial containing the mixture was placed onto an overhead projector (2 cm height from the glass, in order to reduce heat). A UV/Visible spectrum was used to observe the colour change over a period of time at lamda max of the Target dye (Gentian violet or crystal violet)=588 nm in the white light spectrum. (OHP used: Model Ensign. Lamp:24V-250 W-3860 lux)
In order to get quantitative data a UV/Visible spectrum was taken at different times. […]

[3] = acid conditions (pH 3); cited from earlier work

| Compound | Sensitising properties ([1]; pH 7 compared with lower pH) | Sensitising agent for charge injection into titania ([1]; acid pH, compared to tris(2,2′-bipridyl)ruthenium (II) dichloride) | Decolourisation on repeated addition of gentian violet (0.08 ml) ([2]; Example 19, with TiO2 sol (5 ml, 10 g/L), slower rate than on the first addition) | Activity with other light sources versus overhead projector ([2]; with TiO2 sol, daylight bulbs 40 W and 100 W, tungsten filament 35 W and 100 W, fluorescent tube 8 W) | Activity in sensitised photocatalytic oxidation of herbicides [3] |
| --- | --- | --- | --- | --- | --- |
| [Cl-].[Cl-].[Ru+2].c1ccc(-c2ccccn2)nc1.c1ccc(-c2ccccn2)nc1.c1ccc(-c2ccccn2)nc1 [tris(2,2′-bipridyl)ruthenium (II) dichloride, reference compound] | improve |  |  |  |  |
| tris(2,2′-bipyridyl-4,4′-dicarboxylate)ruthenium (II) dichloride |  | superior | still decolourising on the third addition | still works with all light sources tried albeit much slower | active |
